Columns and labels:
[1] = system: glioblastoma (GBM); details: mild hypothyroidism induced by PTU; cited from earlier work
[2] = system: Morris 7800 hepatoma neoplasms; details: PTU 0.1%; cited from earlier work
[3] = system: transplantable liver tumor; details: cited from earlier work
[4] = system: SF763 glioblastoma cells; details: 85 μM, 16 hours at 37° C., cited from earlier work
[5] = system: V-79 cells; details: reduced from 3.4; cited from earlier work
[6] = cited from earlier work
[7] = system: chick chorioallantoic membrane (CAM) blood vessel branching; assay: Chorioallantoic membrane (CAM) model of angiogenesis; format: in vivo
Protocol: In vivo neovascularization was examined by methods described previously. 9-12 Ten-day-old chick embryos were purchased from SPAFAS (Preston, Conn.) and incubated at 37° C. with 55% relative humidity. A hypodermic needle was used to make a small hole in the shell concealing the air sac, and a second hole was made on the broad side of the egg, directly over an avascular portion of the embryonic membrane that was identified by candling. A false air sac was created beneath the second hole by the application of negative pressure at the first hole, causing the CAM to separate from the shell. A window approximately 1.0 cm^2 was cut in the shell over the dropped CAM with a small-crafts grinding wheel (Dremel, division of Emerson Electric Co.), allowing direct access to the underlying CAM. […] Sterile disks of No. 1 filter paper (Whatman International) were pretreated with 3 mg/mL cortisone acetate and 1 mmol/L PTU and air dried under sterile conditions. Thyroid hormone, hormone analogs, FGF2 or control solvents, and inhibitors were then applied to the disks and the disks allowed to dry. The disks were then suspended in PBS and placed on growing CAMs. […] At 24 hours, the MAPK cascade inhibitor PD 98059 was also added to CAMs topically by means of the filter disks.
After incubation at 37° C. with 55% relative humidity for 3 days, the CAM tissue directly beneath each filter disk was resected from control and treated CAM samples. Tissues were washed 3× with PBS, placed in 35-mm Petri dishes (Nalge Nunc), and examined under an SV6 stereomicroscope (Zeiss) at X50 magnification. Digital images of CAM sections exposed to filters were collected using a 3-charge-coupled device color video camera system (Toshiba) and analyzed with Image-Pro software (Media Cybernetics). The number of vessel branch points contained in a circular region equal to the area of each filter disk were counted. One image was counted in each CAM preparation, and findings from 8 to 10 CAM preparations were analyzed for each treatment condition (thyroid hormone or analogs, FGF2, FGF2 antibody, PD 98059). In addition, each experiment was performed 3 times. The resulting angiogenesis index is the mean±SEM of new branch points.

[8] = system: ECV304 endothelial cells; assay: FGF2 release from ECV304 endothelial cells (ELISA); format: cell-based
Protocol: ECV304 endothelial cells were cultured in M199 medium supplemented with 10% fetal bovine serum. […] After 72 hours, the supernatants were harvested and assays for FGF performed without dilution using a commercial ELISA system (R&D Systems) (See Davis et al., Circ Res 94:1500-1506 (2004)).

[9] = system: ERK1/2; assay: MAPK activation in ECV304 cells (nuclear phosphorylated ERK1/2 immunoblot); format: cell-based; details: for effect on T4-induced ERK1/2 (MAPK) activation: PD 98059 30 μmol/L or CGP41251 100 nmol/L, 30 minutes before T4
Protocol: ECV304 endothelial cells were cultured in M199 medium with 0.25% hormone-depleted serum 13 for 2 days. […] Nuclear fractions were pre-pared from all samples by the method reported previously (see Li et al., Carcinogenesis 29:62-69 (2008)), the proteins separated by polyacrylamide gel electrophoresis, and transferred to membranes for immunoblotting with antibody to phosphorylated ERK 1/2.

[10] = system: FGF2 cDNA; assay: RT-PCR of FGF2 in ECV304 cells; format: cell-based; details: T4 10^−7 mol/L, 6 to 48 hours
Protocol: RNA (1 μg) was subjected to reverse transcription-polymerase chain reaction (RT-PCR) using the Access RT-PCR system (Promega). Total RNA was reverse transcribed into cDNA at 48° C. for 45 minutes, then denatured at 94° C. for 2 minutes. Second-strand synthesis and PCR amplification were performed for 40 cycles with denaturation at 94° C. for 30 s, annealing at 60° C. for 60 s, and extension at 68° C. for 120 s, with final ex-tension for 7 minutes at 68° C. after completion of all cycles. PCR primers for FGF2 were as follows: FGF2 sense strand 5′-[…]-3′ (SEQ ID NO:1), antisense strand 5′ […]-3′ (SEQ ID NO:2); the length of the PCR product was 734 bp. Primers for GAPDH included the sense strand 5′-[…]-3′ (SEQ ID NO:3), and antisense strand 5′-[…]-3′ (SEQ ID NO:4); the length of the PCR product was 218 bp. […] The target bands of the gel were quantified using Lablmage software (Kapelan), and the value for [FGF2/GAPDH]X10 calculated for each time point.

[11] = estimated; cited from earlier work
[12] = system: M21 cells; details: 20 ug/ml; 0, 5, and 10 Gy; cited from earlier work

## CCCc1cc(=O)[nH]c(=S)[nH]1 [PTU, 6-N-propyl-2-thiouracil]
[1]
  improvement of duration of survival: 3 fold
[2]
  increase in survival: approximately 1.3 fold
[3]; 10 Gy of x-rays plus 0.05% PTU, control 6.2, x-rays alone 11.2
  time needed to grow from approximately 270 mm^3 to 900 mm^3: 17.8 days
[3]; PTU alone
  tumor growth rate versus control: no difference in growth rate

## CC(C)[C@H]1C(=O)N[C@@H](CCCN=C(N)N)C(=O)NCC(=O)N[C@@H](CC(=O)O)C(=O)N[C@H](Cc2ccccc2)C(=O)N1C [EMD121974]
[4]
  increase of α: 4.4 fold
[4]; from approximately 0.04
  α component in the LQ survival equation: 0.18 Gy^−1

## NC(=O)c1cccc(N)c1 [Compound 3AB, 3-aminobenzamide]
[5]
  Dq value: 1 Gy
[6]
  inhibition of PLDR: ~70%

## COc1cccc(-c2cc(=O)c3ccccc3o2)c1N [PD 98059]
[7]; 3 μmol/L PD 98059
  effect on T3 + T4 stimulated blood vessel branching: completely blocked
[7]; PD 98059 with FGF2 1 μg/mL
  effect on FGF2 stimulation of branch formation: effectively blocked
[8]; T3 + PD 98059 (2 μmol/L)
  FGF2 (pg/mL/10^6 cells): 28.4 ± 3.2 pg/mL/10^6 cells
[8]; T3 + PD 98059 (20 μmol/L)
  FGF2 (pg/mL/10^6 cells): 21.7 ± 3.5 pg/mL/10^6 cells
[8]; T4 + PD 98059 (2 μmol/L)
  FGF2 (pg/mL/10^6 cells): 26.5 ± 4.5 pg/mL/10^6 cells
[8]; T4 + PD 98059 (20 μmol/L)
  FGF2 (pg/mL/10^6 cells): 23.2 ± 4.8 pg/mL/10^6 cells
[9]
  effect on T4-induced ERK1/2 (MAPK) activation: inhibited

## N[C@@H](Cc1cc(I)c(Oc2cc(I)c(O)c(I)c2)c(I)c1)C(=O)O [Compound T4, L-thyroxine]
[7]; 10^−7-10^−9M
  generation of new blood vessels from existing vessels promoted: two-to three-fold
[7]; T4 0.05 μmol/L + FGF2 0.5 μg/mL
  combined effect of sub-maximal hormone and growth factor: additive
[7]; T4, anti-FGF2 experiments (FIG. 5A)
  stimulation of angiogenesis: 1.5 fold
[9]; T4 10^−7 mol/L
  time of maximal level of nuclear phosphorylated ERK1/2: 30 min
  time to appearance of phosphorylated ERK1/2 in cell nuclei: ≤ 15 min
[10]
  FGF2 cDNA abundance corrected for GAPDH: increase in abundance of FGF2 cDNA
[11]
  pKa, COOH (carboxylic acid) group: ~2.0
  pKa, NH2 (amino) group: approximately 9.0

## CO[C@@H]1[C@H](N(C)C(=O)c2ccccc2)C[C@H]2O[C@]1(C)n1c3ccccc3c3c4c(c5c6ccccc6n2c5c31)C(=O)NC4 [CGP41251]
[9]
  effect on T4-induced ERK1/2 (MAPK) activation: blocked the effect of the hormone on MAPK activation

## CNTO 95: human anti-αv integrin monoclonal antibody
[12]
  increase in sensitivity (in vitro apoptosis): 2 fold
